“And” between values parts separate entries of the source, which are not always exact repeats. Equal entries are not always repeated. “Also recorded” adds a separate entry of the source. Where two headings read alike, the source gives them in different places.

For data set [1], the target named is T1, SERT binding sites (Rattus norvegicus, UniProt P31652).
T1 construct: from tissue; host or cells: rat brain in vivo (hypothalamus, cortex, striatum, hippocampus, cerebellum); ex vivo brain sections
T1 sequence (P31652 whole entry): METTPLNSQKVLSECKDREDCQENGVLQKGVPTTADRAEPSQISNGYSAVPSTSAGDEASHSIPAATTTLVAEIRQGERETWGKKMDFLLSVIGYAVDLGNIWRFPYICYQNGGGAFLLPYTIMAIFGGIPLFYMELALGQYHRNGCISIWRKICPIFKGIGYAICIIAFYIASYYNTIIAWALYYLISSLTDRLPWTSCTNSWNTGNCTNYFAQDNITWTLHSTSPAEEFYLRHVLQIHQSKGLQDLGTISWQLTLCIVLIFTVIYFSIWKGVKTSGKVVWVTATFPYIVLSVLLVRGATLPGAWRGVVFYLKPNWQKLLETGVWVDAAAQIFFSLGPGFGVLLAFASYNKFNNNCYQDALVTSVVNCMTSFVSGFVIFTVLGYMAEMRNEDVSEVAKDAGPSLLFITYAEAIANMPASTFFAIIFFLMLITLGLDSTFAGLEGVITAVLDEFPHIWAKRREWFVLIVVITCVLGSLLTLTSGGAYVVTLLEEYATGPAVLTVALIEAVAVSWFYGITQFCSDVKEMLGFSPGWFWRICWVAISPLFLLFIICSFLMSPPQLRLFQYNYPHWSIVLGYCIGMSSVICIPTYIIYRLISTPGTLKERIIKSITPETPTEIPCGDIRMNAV
Put plainly: Ex vivo autoradiography of rat brain sections. It is filed as in vivo, rats. The following applies: rat, 2 mg/Kg 5 min prior to [^125I]4.

In data set [2] the target is T1, SERT binding sites. Briefly: In vivo competitive binding / blocking of [^125I]4 regional uptake. The following applies: rats, drug 2 mg/kg i.v. 5 min prior to tracer, 120 min after [^125I]4. The text has this: The reduction of regional specific binding in the drug-pretreated rats was compared to the control animals with saline pretreatment.
Data set [3] concerns the target T2, SERT (serotonin transporter) (Rattus norvegicus, UniProt P31652).
T2 construct: membrane homogenates
Briefly: In vitro binding assay, membranes of LLC-PK1 cells expressing SERT, [^125I]IDAM. The method, then:
(§1) Preparation of membrane homogenates: LLC-PK1 cells from pig kidney permanently expressing DAT, NET and SERT, respectively (LLC-DAT, LLC-NET and LLC-SERT) were kindly provided by Dr. G. Rudnick at Yale University. These cells were grown to confluence as a monolayer on 15 cm petri dish as reported previously. […] Cells were then washed once with phosphate buffer saline (w/ Ca^2+ and Mg^2+) (Bio-Whittaker) and harvested with 10 mL PBS by scraping. The cell suspensions were homogenized on ice for 20 strokes and centrifuged at 17,000 rpm for 20 min at 4° C. The pellets were re-suspended in PBS, frozen quickly in liquid N2 and stored in a −70° C. freezer.
(§2) Binding assays: Binding assays were performed in a final volume of 0.2 mL. […] Incubation was carried out for one h at room temperature and the bound ligand was collected on glass fiber filters (Schleicher & Schuell No. 25, Keene, N.H.) presoaked with 1% polyethylenimine (Sigma, St. Louis, Mo.) and counted in a gamma counter (Packard 5000). Results of competition experiments were subjected to nonlinear regression analysis using EBDA (Elsevier-BIOSOFT, Cambridge, UK).

Data set [4] deals with T3, DAT (dopamine transporter) (Rattus norvegicus, UniProt P23977).
T3 construct: membrane homogenates
T3 sequence (P23977 whole entry): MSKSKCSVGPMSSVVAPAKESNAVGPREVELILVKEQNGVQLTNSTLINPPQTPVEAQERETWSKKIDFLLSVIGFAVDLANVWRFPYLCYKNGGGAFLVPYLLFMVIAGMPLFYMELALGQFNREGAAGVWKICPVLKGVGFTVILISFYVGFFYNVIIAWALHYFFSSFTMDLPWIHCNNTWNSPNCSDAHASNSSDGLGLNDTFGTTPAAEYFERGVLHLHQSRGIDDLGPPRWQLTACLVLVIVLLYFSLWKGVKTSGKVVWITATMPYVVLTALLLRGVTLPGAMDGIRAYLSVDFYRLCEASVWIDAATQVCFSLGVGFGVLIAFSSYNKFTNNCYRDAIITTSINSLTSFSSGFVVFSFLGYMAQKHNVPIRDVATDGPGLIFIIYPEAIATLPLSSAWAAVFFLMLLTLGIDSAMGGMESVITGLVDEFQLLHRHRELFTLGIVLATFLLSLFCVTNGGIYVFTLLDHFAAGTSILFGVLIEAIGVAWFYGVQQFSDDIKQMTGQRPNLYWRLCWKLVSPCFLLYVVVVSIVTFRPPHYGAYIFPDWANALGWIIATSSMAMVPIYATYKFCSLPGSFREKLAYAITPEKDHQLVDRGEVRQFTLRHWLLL
Briefly: In vitro binding assay, membranes of LLC-PK1 cells expressing DAT, [^125I]IPT. The procedure: as §1, §2

Data set [5] deals with T4, NET (norepinephrine transporter) (Homo sapiens, UniProt P23975).
T4 construct: membrane homogenates
T4 sequence (P23975 whole entry): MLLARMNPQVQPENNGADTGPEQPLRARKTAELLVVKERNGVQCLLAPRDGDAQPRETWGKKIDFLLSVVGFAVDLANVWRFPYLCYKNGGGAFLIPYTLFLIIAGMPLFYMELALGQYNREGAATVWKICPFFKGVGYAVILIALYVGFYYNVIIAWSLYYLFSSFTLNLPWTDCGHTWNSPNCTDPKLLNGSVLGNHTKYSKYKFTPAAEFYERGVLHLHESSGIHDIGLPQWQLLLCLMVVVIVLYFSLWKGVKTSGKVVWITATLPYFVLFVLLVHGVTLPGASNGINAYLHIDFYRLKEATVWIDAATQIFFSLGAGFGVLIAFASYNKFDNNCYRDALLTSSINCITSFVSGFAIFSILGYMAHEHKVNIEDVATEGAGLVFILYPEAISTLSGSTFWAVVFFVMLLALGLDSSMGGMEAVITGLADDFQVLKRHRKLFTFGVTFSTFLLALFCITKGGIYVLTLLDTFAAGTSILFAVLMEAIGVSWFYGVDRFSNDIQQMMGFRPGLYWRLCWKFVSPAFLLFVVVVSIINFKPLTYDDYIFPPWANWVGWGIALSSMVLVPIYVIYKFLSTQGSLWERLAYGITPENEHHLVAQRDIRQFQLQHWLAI
Put plainly: In vitro binding assay, membranes of LLC-PK1 cells expressing NET, [^125I]IPT. The procedure: as §1, §2

Data set [6] deals with T5, serotonin transporters (Rattus norvegicus, UniProt P31652).
T5 construct: from tissue; host or cells: rat brain in vivo (hypothalamus, cortex, striatum, hippocampus, cerebellum); ex vivo brain sections
T5 sequence (P31652 whole entry): as the sequence (P31652 whole entry) above
Put plainly: Regional brain distribution and specific binding ratio in rats. It is filed as in vivo. The procedure:
Regional brain distribution in rats was measured after an i.v. injection of the radioactive tracer. Samples from different brain regions: cortex (frontal plus occipital), striatum, hippocampus, cerebellum and hypothalamus were dissected, weighed and counted. The percentage dose/g of each sample was calculated by comparing sample counts with the counts of the diluted initial dose described above. The specific binding ratio in each region was obtained by dividing the % dose/gram values between region by that in the cerebellum ([region-cerebellum/cerebellum]). The cerebellum region containing little or no serotonin transporters was used as the background region.

Data set [7] is described as follows: Biodistribution in rats after iv injection (organs). Format: in vivo. The method, then: Biodistribution in rats: Three rats per group were used for each biodistribution study. While under ether anesthesia, 0.2 mL of a saline solution containing 10 μCi of radioactive tracer was injected into the femoral vein. The rats were sacrificed at the time indicated by cardiac excision while under ether anesthesia. Organs of interest were removed and weighed, and the radioactivity was counted. The percent dose per organ was calculated by a comparison of the tissue counts to counts of 1% of the initial dose (100 times diluted aliquots of the injected material) measured at the same time.

Data set [8] can be described thus: Partition coefficient 1-octanol/buffer. The conditions noted are these: 1-octanol/buffer pH 7.4, 0.1 M phosphate. Format: physicochemical. The procedure: The test tube was vortexed for 3 min at room temperature, then centrifuged for 5 min. Two weighed samples (2 g each) from the 1-octanol and buffer layers were counted in a well counter. The partition coefficient was determined by calculating the ratio of cpm/g of 1-octanol to that of buffer. Samples from the 1-octanol layer were re-partitioned until consistent partition coefficient values were obtained. The measurement was repeated 3 times.

Data set [9] in a line: Stability of the radioactive material.
The mark [10] stands for this setting: LLC-PK1 cells expressing SERT, read-out: Ki SERT.

T2 sequence (P31652 whole entry): as above

With `CSc1ccc([C@@H]2CN3CCC[C@@H]3c3ccccc32)cc1` [(+)McN5652], the “effect of pretreatment on specific uptake of [^125I]4 in brain regions (autoradiography)” value in data set [1] is listed as “totally eliminated”. Besides, the “effect of pretreatment on specific binding/uptake of [^125I]4 in hypothalamus” value in [2] is listed as “completely eliminated the specific binding; also recorded: significantly blocked”.

`CN(C)Cc1ccccc1Sc1ccc(I)cc1CO` [Compound 1, reference compound]: the figures for the Ki in data set [3] (setting [10]), in data set [4] and in [5] were 0.097 ± 0.013 nM, above 1000 nM and 234 ± 26 nM, respectively.

Turning to `CN(C)Cc1ccccc1Oc1ccc(I)cc1CO` [Compound 2, reference compound], the Ki (usually the equilibrium dissociation constant of an inhibitor or competing ligand from its target) in [4] was above 1000 nM; in [5] it was 20 ± 2 nM.

Consider `CN(C)Cc1ccccc1Oc1ccc(I)cc1N` [Compound 4, 2-(2-(Dimethylaminomethyl)phenoxy)-5-iodophenylamine], for which the “hypothalamus uptake compared to other radioiodinated compounds” value in data set [6] (60-240 min post i.v. injection) is “highest hypothalamus uptake among all of the radioiodinated compounds”. In addition, the “higher uptake in hypothalamus than ADAM (3)” value in data set [6] (between 2 and 4 h) is “more than 200%”. Besides, the “Regional brain distribution HY (hypothalamus)” value in data set [6] (iv, 120 min) worked out at 0.92 % dose/g; in data set [6] (iv, 240 min), 0.32 % dose/g. Besides, the Ki in data set [3] was determined as 0.37 ± 0.11 nM; in data set [4], 309 ± 65 nM; in [5], 286 ± 36 nM. In addition, the “selectivity for SERT over NET and DAT” value in [3] was “more than 500 fold”. Further, the “increase in brain uptake vs ADAM (3)” value in data set [7] (2 and 4 h after i.v. injection) is on record as “two to three-fold increase”. In addition, the brain uptake in data set [7] (2 h after i.v. injection) amounted to 1.08 % dose/brain; in [7] (4 h after i.v. injection), 0.33 % dose/brain. Further, the Partition coefficient in data set [8] stood at 418.

Regarding `CN(C)Cc1ccccc1Cc1ccc(I)cc1N` [Compound 5, 2-(2-(dimethylaminomethyl)benzyl)-5-iodophenylamine], the results for the Ki in data set [3] (setting [10]), in data set [4] and in data set [5] were 48.6 ± 4.1 nM, above 1000 nM and 17 ± 4 nM, respectively.

For the compound `CN(C)Cc1ccccc1Sc1ccc(C#N)cc1N` [DASB, reference compound], the Ki in data set [3] (setting [10]) was 1.1 ± 0.04 nM; in data set [4], above 1000 nM.

With `CN(C)Cc1ccccc1Oc1ccc([125I])cc1N` [[^123I]4, [^125I][^123I]2-(2-(Dimethylaminomethyl)phenoxy)-5-iodophenylamine], the stability after labeling in data set [9] (after labeling) worked out at 24 h.

As for `CN(C)Cc1ccccc1Cc1ccc([125I])cc1N` [[^125I]5, 2-(2-(Dimethylaminomethyl)benzyl)-5-[^125I]iodophenylamine], the “Ratio of (Region-Cerebellum)/Cerebellum, HY” value in data set [6] (iv, 120 min) amounted to 2.43. For the same compound, the “stability in a refrigerator” value in data set [9] (refrigerator) is listed as “stable in a refrigerator at least for three weeks”. In addition, the brain uptake in [7] (2 min post-injection) is 1.77 % dose and 1.77±0.049 % dose. The Partition coefficient in data set [8] is given as 1,730.

The compound `CN(C)Cc1ccccc1Sc1ccc([125I])cc1N` [[^125I]ADAM (3), reference compound] yielded a Partition coefficient in [8] of 335.

As to `O=C(c1ccc(F)cc1)C1CCN(CCn2c(=O)[nH]c3ccccc3c2=O)CC1` [ketanserin], in data set [2], the “effect of pretreatment on specific binding/uptake of [^125I]4 in hypothalamus” value is recorded as “did not show any significant effect”.

As to `COC(=O)C(c1ccccc1)C1CCCCN1` (stereo not drawn) [methylphenidate], the “effect of pretreatment on specific binding/uptake of [^125I]4 in hypothalamus” value in data set [2] was “did not show any significant effect”.

`CCN1CCC[C@H]1CNC(=O)c1c(O)c(Cl)cc(Cl)c1OC` [raclopride]: the “effect of pretreatment on specific binding/uptake of [^125I]4 in hypothalamus” value in [2] is given as “did not show any significant effect”.

Values taken from patent US20060083680A1, “Diphenyl ether derivatives and their use for imaging serotonin transporters” (The Trustees of the University of Pennsylvania, priority 2004, published 2006).
